The source of these data is BindingDB's records for patent US20250268854 (C/O Vesper Bio, 2025).

Structures are written as SMILES.

For test [1], the target named is T1, Sortilin (Homo sapiens, UniProt Q99523).
T1 sequence (Q99523 whole entry): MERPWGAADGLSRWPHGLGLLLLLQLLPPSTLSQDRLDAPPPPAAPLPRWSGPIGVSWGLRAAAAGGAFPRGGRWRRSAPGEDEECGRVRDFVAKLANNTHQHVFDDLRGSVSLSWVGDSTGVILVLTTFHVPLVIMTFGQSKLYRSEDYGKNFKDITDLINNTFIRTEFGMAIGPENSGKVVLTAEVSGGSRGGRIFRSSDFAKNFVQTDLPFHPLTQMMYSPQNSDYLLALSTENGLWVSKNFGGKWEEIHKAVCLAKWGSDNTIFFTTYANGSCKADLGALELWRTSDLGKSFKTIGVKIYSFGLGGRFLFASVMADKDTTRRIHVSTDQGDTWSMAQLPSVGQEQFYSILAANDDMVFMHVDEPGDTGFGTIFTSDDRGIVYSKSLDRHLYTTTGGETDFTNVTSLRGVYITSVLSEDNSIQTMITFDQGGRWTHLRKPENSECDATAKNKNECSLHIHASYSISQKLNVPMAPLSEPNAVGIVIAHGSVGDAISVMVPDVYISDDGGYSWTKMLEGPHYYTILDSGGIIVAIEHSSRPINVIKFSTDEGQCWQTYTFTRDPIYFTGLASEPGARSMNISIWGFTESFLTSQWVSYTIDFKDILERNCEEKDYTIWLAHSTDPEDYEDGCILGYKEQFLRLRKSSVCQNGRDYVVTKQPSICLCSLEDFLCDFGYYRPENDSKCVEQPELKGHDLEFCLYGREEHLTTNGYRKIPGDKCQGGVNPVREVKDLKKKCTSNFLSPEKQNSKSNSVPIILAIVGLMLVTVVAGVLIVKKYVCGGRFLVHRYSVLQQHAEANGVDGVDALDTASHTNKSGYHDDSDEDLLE
Briefly: Neurotensin Scintillation Proximity Assay. As for the experimental part:
Compound affinity was determined by measuring the displacement of [3H]-neurotensin binding to h-Sortilin in SPA format. Total volume of 40 μl in 50 mM HEPES pH 7.4 assay buffer containing 100 mM NaCl, 2.0 mM CaCl2, 0.1% BSA and 0.1% Tween-20. […] Dose-response evaluation of compounds was performed with 8 concentrations of drugs (covering 3 decades). IC50 values were calculated by nonlinear regression using the sigmoid concentration-response (variable slope) using CDD Vault software. All values reported are average of at least 2 determinations.
A general note: In a scintillation proximity assay essentially only radioactivity close to the scintillant gives light.

For test [2], the target named is T1, Sortilin. Nature of the test: Rapid Kinetics Assay. As for the experimental part:
Compounds were screened at a final assay concentration of 1 μM and a final DMSO concentration was 1%. To achieve this, compounds were diluted in DMSO from 10 mM stocks to 100 μM (100×final assay concentration) then diluted 1:100 in running buffer which contained no DMSO to establish a final assay concentration of compound of 1 μM and a final DMSO concentration of 1% [DMSO].Compounds and DMSO were mixed by plate shaking at 1000 rpm for 60 seconds using a Bioshake instrument.

Regarding `CC(C)(C)CC[C@H](NC1=NC2C=CC=CC2OC2C=CC=CC12)C(=O)O` (some centres undefined) [US20250268854, Example 20], half-maximal inhibition in test [1] (IC50) required 1490 nM.

In test [1], `CC(C)(C)CC[C@H](NCC1=CC(Cl)CC(Cl)=C1)C(=O)O` (some centres undefined) [US20250268854, Example 32] returned a half-inhibitory concentration (IC50) of 840 nM.

Take `COc1cccc(CN[C@@H](CCC(C)(C)C)C(=O)O)c1F` [US20250268854, Example 34]: the Kd in test [2] came out at 492 nM. Moreover, the midpoint of inhibition in test [1], the IC50, lay at 720 nM.

Regarding `CC(C)(C)CC[C@H](NCc1cc2ccccc2[nH]1)C(=O)O` [US20250268854, Example 50], the IC50 in test [1] came to 610 nM.

As for `C[C@@H](N[C@@H](CCC(C)(C)C)C(=O)O)c1cccc2c1ccn2C` [US20250268854, Example 63], binding in test [2] was put at a Kd of 56.7 nM. This molecule came in with an IC50 in test [1] of 200 nM.

`C[C@H](N[C@@H](CCC(C)(C)C)C(=O)O)c1cccc2c1ccn2C` [US20250268854, Example 64] displayed a Kd in test [2] of 102 nM. The molecule further showed an IC50 in test [1] of 460 nM.

The molecule `CC(C)(C)CC[C@H](NCc1ccncn1)C(=O)O` [US20250268854, Example 136] gave a dissociation constant Kd in test [2] of 26400 nM. Moreover, half-maximal inhibition in test [1] (IC50) was put at 1600 nM.

For the molecule `CC(C)(C)CC[C@H](NCc1cccc(C#N)c1)C(=O)O` [US20250268854, Example 142], the IC50 in test [1] came out at 1260 nM. This counts as single-digit micromolar.

Molecule `COC1C=C(CN[C@@H](CCC(C)(C)C)C(=O)O)C=NC1` (some centres undefined) [US20250268854, Example 144] returned a Kd in test [2] of 310 nM. In addition, the midpoint of inhibition in test [1], the IC50, lay at 430 nM.

Usually IC50 stands for the concentration that inhibits the measured activity by half. As usually defined, the Kd is the free concentration of one partner at which half of the binding sites on the other are occupied at equilibrium, for simple one-to-one binding. A lower Kd goes with tighter binding.
